# Biological target: PD-1/PD-L1 (Homo sapiens (Human), UniProt Q9NZQ7)
# Assay: PD-1/PD-L1 Homogeneous Time-Resolved Fluorescence (HTRF) Binding Assay
# Conditions: recombinant human PD-1 (3 nM) and PD-L1 (10 nM), 25° C., PBS pH 7.4
# Protocol: Example A. PD-1/PD-L1 Homogeneous Time-Resolved Fluorescence (HTRF) Binding Assay
# The assays were conducted in a standard black 384-well polystyrene plate with a final volume of 20 μL. Inhibitors were first serially diluted in DMSO and then added to the plate wells before the addition of other reaction components. The final concentration of DMSO in the assay was 1%. The assays were carried out at 25° C. in the PBS buffer (pH 7.4) with 0.05% Tween-20 and 0.1% BSA. Recombinant human PD-L1 protein (19-238) with a His-tag at the C-terminus was purchased from AcroBiosystems (PD1-H5229). Recombinant human PD-1 protein (25-167) with Fc tag at the C-terminus was also purchased from AcroBiosystems (PD1-H5257). PD-L1 and PD-1 proteins were diluted in the assay buffer and 10 μL was added to the plate well. Plates were centrifuged and proteins were preincubated with inhibitors for 40 minutes. The incubation was followed by the addition of 10 μL of HTRF detection buffer supplemented with Europium cryptate-labeled anti-human IgG (PerkinElmer-AD0212) specific for Fc and anti-His antibody conjugated to SureLight®-Allophycocyanin (APC, PerkinElmer-AD0059H). After centrifugation, the plate was incubated at 25° C. for 60 min. before reading on a PHERAstar FS plate reader (665 nm/620 nm ratio). Final concentrations in the assay were—3 nM PD1, 10 nM PD-L1, 1 nM europium anti-human IgG and 20 nM anti-His-Allophycocyanin. IC50 determination was performed by fitting the curve of percent control activity versus the log of the inhibitor concentration using the GraphPad Prism 5.0 software.
# Chain of PD-1/PD-L1 (Q9NZQ7 19-238): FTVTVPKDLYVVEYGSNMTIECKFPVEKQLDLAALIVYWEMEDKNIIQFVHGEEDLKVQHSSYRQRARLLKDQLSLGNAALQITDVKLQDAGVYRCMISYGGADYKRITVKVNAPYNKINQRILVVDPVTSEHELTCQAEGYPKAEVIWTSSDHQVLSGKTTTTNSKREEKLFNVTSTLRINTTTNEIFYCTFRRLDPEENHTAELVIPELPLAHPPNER
row,Compound,IC50 [nM]
1,"Cc1c(-c2nc3cc(CN4CC[C@@H](C(=O)O)C4)cc(C#N)c3o2)cccc1-c1cccc(-c2nc3c(s2)CN(C(C)C)CC3)c1C [Example 63, (R)-1-((7-cyano-2-(3′-(5-isopropyl-4,5,6,7-tetrahydrothiazolo[5,4-c]pyridin-2-yl)-2,2′-dimethyl-[1,1′-biphenyl]-3-yl)benzo[d]oxazol-5-yl)methyl)pyrrolidine-3-carboxylic acid]",≤ 10
2,"Cc1c(-c2nc3cc(CN4CC[C@@H](C(=O)O)C4)cc(C#N)c3o2)cccc1-c1cccc(-c2nc3c(s2)CNCC3)c1C [Example 72, (R)-1-((7-cyano-2-(2,2′-dimethyl-3′-(4,5,6,7-tetrahydrothiazolo[5,4-c]pyridin-2-yl)biphenyl-3-yl)benzo[d]oxazol-5-yl)methyl)pyrrolidine-3-carboxylic acid]",≤ 10
3,"Cc1c(-c2nc3cc(CN4CC[C@@H](C(=O)O)C4)cc(C#N)c3o2)cccc1-c1cccc(-c2nc3c(s2)CN(C(=O)CN2CC[C@@](C)(O)C2)C3)c1C [Example 116, (R)-1-((7-cyano-2-(3′-(5-(2-((R)-3-hydroxy-3-methylpyrrolidin-1-yl)acetyl)-5,6-dihydro-4H-pyrrolo[3,4-d]thiazol-2-yl)-2,2′-dimethylbiphenyl-3-yl)benzo[d]oxazol-5-yl)methyl)pyrrolidine-3-carboxylic acid]",≤ 10
4,"CCN(CCO)C1CCN(c2cccc(-c3cccc(-c4nc5cc(CN6CC[C@@H](C(=O)O)C6)cc(C#N)c5o4)c3C)c2Cl)CC1 [Example 48, (R)-1-((2-(2′-chloro-3′-(4-(ethyl(2-hydroxyethyl)amino)piperidin-1-yl)-2-methylbiphenyl-3-yl)-7-cyanobenzo[d]oxazol-5-yl)methyl)pyrrolidine-3-carboxylic acid]",≤ 10
5,"Cc1c(Nc2nccc3cc(CN4CC[C@@H](O)C4)cnc23)cccc1-c1cccc(-c2nc3cc(CNCCc4ccc(C(=O)O)cc4)cc(C#N)c3o2)c1C [Example 171, (R)-4-(2-((7-cyano-2-(3′-(3-((3-hydroxypyrrolidin-1-yl)methyl)-1,7-naphthyridin-8-ylamino)-2,2′-dimethylbiphenyl-3-yl)benzo[d]oxazol-5-yl)methylamino)ethyl)benzoic acid]",≤ 10
6,"CCN(C)CC(=O)N1Cc2nc(-c3cccc(-c4cccc(-c5nc6cc(CN7CC[C@@](C)(C(=O)O)C7)cc(C#N)c6o5)c4C)c3C)oc2C1 [Example 243, (R)-1-((7-cyano-2-(3′-(5-(N-ethyl-N-methylglycyl)-5,6-dihydro-4H-pyrrolo[3,4-d]oxazol-2-yl)-2,2′-dimethyl-[1,1′-biphenyl]-3-yl)benzo[d]oxazol-5-yl)methyl)-3-methylpyrrolidine-3-carboxylic acid]",≤ 10
7,"Cc1c(-c2nc3cc(CN4CCCC[C@H]4C(=O)O)cc(Cl)c3o2)cccc1-c1cccc(NC(=O)c2nc3c(s2)CN(C)CC3)c1Cl [Example 8, (S)-1-((7-chloro-2-(2′-chloro-2-methyl-3′-(5-methyl-4,5,6,7-tetrahydrothiazolo[5,4-c]pyridine-2-carboxamido)-[1,1′-biphenyl]-3-yl)benzo[d]oxazol-5-yl)methyl)piperidine-2-carboxylic acid]",≤ 10
8,"Cc1c(-c2nc3cc(CN4CCCC[C@H]4C(=O)O)cc(Cl)c3o2)cccc1-c1cccc(NC(=O)c2ccc(CNCCO)cn2)c1Cl [Example 1, (S)-1-((7-chloro-2-(2′-chloro-3′-(5-(((2-hydroxyethyl)amino)methyl)picolinamido)-2-methyl-[1,1′-biphenyl]-3-yl)benzo[d]oxazol-5-yl)methyl)piperidine-2-carboxylic acid]",≤ 10
9,"Cc1c(Nc2ncnc3cc(CNC[C@H](C)O)cnc23)cccc1-c1cccc(-c2nc3cc(CN4CC[C@@](C)(C(=O)O)C4)cc(C#N)c3o2)c1C [Example 208, (R)-1-((7-cyano-2-(3′-(7-(((S)-2-hydroxypropylamino)methyl)pyrido[3,2-d]pyrimidin-4-ylamino)-2,2′-dimethylbiphenyl-3-yl)benzo[d]oxazol-5-yl)methyl)-3-methylpyrrolidine-3-carboxylic acid]",≤ 10
10,"Cc1c(Nc2nccc3cc(CN4CC[C@H](O)C4)cnc23)cccc1-c1cccc(-c2nc3cc(CN4CC[C@@H](C(=O)O)C4)cc(C#N)c3o2)c1C [Example 26, (R)-1-((7-cyano-2-(3′-(3-(((S)-3-hydroxypyrrolidin-1-yl)methyl)-1,7-naphthyridin-8-ylamino)-2,2′-dimethylbiphenyl-3-yl)benzo[d]oxazol-5-yl)methyl)pyrrolidine-3-carboxylic acid]",≤ 10
11,"Cc1c(-c2nc3cc(CN4CC[C@@H](C(=O)O)C4)cc(C#N)c3o2)cccc1-c1cccc(-c2nc3c(s2)CN(C(=O)CN2CC[C@](C)(O)C2)C3)c1C [Example 115, (R)-1-((7-cyano-2-(3′-(5-(2-((S)-3-hydroxy-3-methylpyrrolidin-1-yl)acetyl)-5,6-dihydro-4H-pyrrolo[3,4-d]thiazol-2-yl)-2,2′-dimethylbiphenyl-3-yl)benzo[d]oxazol-5-yl)methyl)pyrrolidine-3-carboxylic acid]",≤ 10
12,"Cc1c(-c2nc3c(o2)CN(C(=O)CN2CC4CC2CN4C)C3)cccc1-c1cccc(-c2nc3cc(CN4CC[C@@H](C(=O)O)C4)cc(C#N)c3o2)c1C (stereo partly drawn) [Example 255, (3R)-1-((7-cyano-2-(2,2′-dimethyl-3′-(5-(2-(5-methyl-2,5-diazabicyclo[2.2.1]heptan-2-yl)acetyl)-5,6-dihydro-4H-pyrrolo[3,4-d]oxazol-2-yl)biphenyl-3-yl)benzo[d]oxazol-5-yl)methyl)pyrrolidine-3-carboxylic acid]",≤ 10
13,"Cc1c(-c2nc3cc(CN4CC[C@@H](C(=O)O)C4)cc(C#N)c3o2)cccc1-c1cccc(-n2cc3c(n2)CN(C)CC3)c1Cl [Example 57, (R)-1-((2-(2′-chloro-2-methyl-3′-(6-methyl-4,5,6,7-tetrahydro-2H-pyrazolo[3,4-c]pyridin-2-yl)biphenyl-3-yl)-7-cyanobenzo[d]oxazol-5-yl)methyl)pyrrolidine-3-carboxylic acid]",≤ 10
14,"Cc1c(-c2nc3cc(CN4CC(C(=O)O)C4)cc(C#N)c3o2)cccc1-c1cccc(-n2cc3c(n2)CN(C(C)C)CC3)c1Cl [Example 239, 1-((2-(2′-chloro-3′-(6-isopropyl-4,5,6,7-tetrahydro-2H-pyrazolo[3,4-c]pyridin-2-yl)-2-methylbiphenyl-3-yl)-7-cyanobenzo[d]oxazol-5-yl)methyl)azetidine-3-carboxylic acid]",≤ 10
15,"Cc1c(-c2nc3cc(CN4CCC(C(=O)O)CC4)cc(C#N)c3o2)cccc1-c1cccc(NC(=O)c2nc3c(n2C)CCNC3)c1Cl [Example 154, 1-((2-(2′-chloro-2-methyl-3′-(1-methyl-4,5,6,7-tetrahydro-1H-imidazo[4,5-c]pyridine-2-carboxamido)biphenyl-3-yl)-7-cyanobenzo[d]oxazol-5-yl)methyl)piperidine-4-carboxylic acid]",≤ 10
16,"Cc1c(Nc2nccc3cc(CN4CC[C@@H](O)C4)cnc23)cccc1-c1cccc(-c2nc3cc(CN[C@H]4CC[C@@H](C(=O)O)CC4)cc(C#N)c3o2)c1C [Example 172, cis-4-((7-cyano-2-(3′-(3-(((R)-3-hydroxypyrrolidin-1-yl)methyl)-1,7-naphthyridin-8-ylamino)-2,2′-dimethylbiphenyl-3-yl)benzo[d]oxazol-5-yl)methylamino) cyclohexanecarboxylic acid]",≤ 10
